Drawing on article PMC8513058, “Synthesis and Evaluation of Novel 1,2,6-Thiadiazinone Kinase Inhibitors as Potent Inhibitors of Solid Tumors” (Molecules, 2021), this text covers melting point and IC50 for seven compounds.

Structures are written as SMILES. Bounds are passed on as bounds.

One series has as its system 5637 cells. Put plainly: Cancer cell line viability screen (alamarBlue), 5637. The conditions noted are these: 72 h, read-out: IC50 5637.
In the next series the test system is MCF-7 cells. As to the kind of experiment: Cancer cell line viability screen (alamarBlue), MCF7. The conditions noted are these: Homo sapiens, MCF7, 72 h, read-out: IC50 MCF7. A general note: Resazurin is reduced to fluorescent resorufin, in cell work by metabolically active cells.
The subject of a further series is U-CH1 cells. As to the kind of experiment: Cancer cell line viability screen (alamarBlue), UCH1. To be noted: UCH1, 72 h, read-out: IC50 UCH1.
For a further series, the system named is U-CH2 cells. Put plainly: Cancer cell line viability screen (alamarBlue), UCH2. To be noted: UCH2, 72 h, read-out: IC50 UCH2.
A further series has as its system A-431 cells. As to the kind of experiment: Cancer cell line viability screen (alamarBlue), A431. The conditions noted are these: Homo sapiens, A-431, 72 h, read-out: IC50 A431.
The test system of the next series is DU145 cells. Put plainly: Cancer cell line viability screen (alamarBlue), DU145. The conditions noted are these: Homo sapiens, DU-145, 72 h, read-out: IC50 DU145.
The next series deals with PANC-1 cells. As to the kind of experiment: Cancer cell line viability screen (alamarBlue), PANC1. To be noted: Homo sapiens, PANC-1, 72 h, read-out: IC50 PANC1.
The next series deals with WS-1 cell line. As to the kind of experiment: Toxicity control viability screen (alamarBlue), WS-1 skin fibroblasts. The conditions noted are these: WS1, 72 h, read-out: IC50 WS-1.

Protocol for 5637 cells: (§1) This included pancreatic, bladder, prostate, breast, chordoma, and lung cancer cell lines while a skin fibroblast cell line was used as a toxicity control [33, 34, 35, 36].
(§2) DU145 and MCF-7 cells were cultured in MEM medium supplemented with 10% FBS and 1% penicillin/streptomycin. […] Cells were seeded in 384-well plates and were treated with test compound in quadruplicate 24 h after plating. Cell viability was assessed at 72 h using alamarBlue (ThermoFisher, Waltham, MA, USA). […] IC50 values were determined by nonlinear regression using GraphPad PrismTM software (GraphPad Software Inc., San Diego, CA, US).
Protocol for A-431 cells: as §1
(§3) Cells were seeded in 384-well plates and were treated with test compound in quadruplicate 24 h after plating. Cell viability was assessed at 72 h using alamarBlue (ThermoFisher, Waltham, MA, USA). […] IC50 values were determined by nonlinear regression using GraphPad PrismTM software (GraphPad Software Inc., San Diego, CA, US).
Protocol for DU145 cells: as §1, §2
Protocol for MCF-7 cells: as §1, §2
Protocol for PANC-1 cells: as §1, §2
Protocol for U-CH1 cells: as §1, §3
Protocol for U-CH2 cells: as §1, §3
Protocol for WS-1 cell line: as §1, §2

In general, melting point refers to the temperature of the solid-liquid transition. The IC50 is the concentration that inhibits the measured activity by half. `CC(=O)c1cccc(Nc2nsnc(-c3ccnc4[nH]ccc34)c2=O)c1` [Compound 14, 3-[(3-Acetylphenyl)amino]-5-(1H-pyrrolo[2,3-b]pyridin-4-yl)-4H-1,2,6-thiadiazin-4-one] had a melting point of 271 to 273 °C. Further, the concentration for half-maximal inhibition (IC50) in the series on 5637 cells was 15 µM. Also, in the series on MCF-7 cells, the IC50 is above 100 µM. Also, the IC50 in the series with U-CH1 cells amounted to 58 µM. For the same compound, the 50% inhibitory concentration (IC50) with U-CH2 cells is above 100 µM. For the same compound, the 50% inhibitory concentration (IC50) in the series with A-431 cells was above 100 µM. Moreover, the IC50 in the series with DU145 cells was above 100 µM. The IC50 in the series with PANC-1 cells was above 100 µM. The IC50 in the series with WS-1 cell line came to 92 µM.
The compound `COc1cccc(Nc2nsnc(-c3ccnc4[nH]ccc34)c2=O)c1` [Compound 15, 3-[(3-Methoxyphenyl)amino]-5-(1H-pyrrolo[2,3-b]pyridin-4-yl)-4H-1,2,6-thiadiazin-4-one] registered a melting point of 257 to 258 °C. Besides, the 50% inhibitory concentration (IC50) in the series on 5637 cells came to 15 µM. For the same compound, the concentration for half-maximal inhibition (IC50) with MCF-7 cells was above 100 µM. The IC50 in the series on U-CH1 cells amounted to 67 µM. Further, in the series with U-CH2 cells, the concentration for half-maximal inhibition (IC50) is above 100 µM. Also, the IC50 in the series with A-431 cells was above 100 µM. In addition, in the series on DU145 cells, the IC50 was above 100 µM. For the same compound, the 50% inhibitory concentration (IC50) in the series with PANC-1 cells is above 100 µM. Moreover, the IC50 in the series on WS-1 cell line is above 100 µM.
For `Cc1ccc(O)cc1Nc1nsnc(-c2ccnc3[nH]ccc23)c1=O` [Compound 18, 3-[(5-Hydroxy-2-methylphenyl)amino]-5-(1H-pyrrolo[2,3-b]pyridin-4-yl)-4H-1,2,6-thiadiazin-4-one], the melting point was 304 to 305 °C. Moreover, the half-maximal inhibitory concentration (IC50) with 5637 cells amounted to 55 µM. Also, in the series on MCF-7 cells, the IC50 was above 100 µM. Besides, the IC50 in the series with U-CH1 cells was above 100 µM. Moreover, the IC50 in the series on U-CH2 cells was above 100 µM. Moreover, the 50% inhibitory concentration (IC50) in the series with A-431 cells was above 100 µM. Moreover, the concentration for half-maximal inhibition (IC50) in the series with DU145 cells was above 100 µM. Also, in the series with PANC-1 cells, the IC50 was above 100 µM. Besides, the IC50 in the series on WS-1 cell line was above 100 µM.
`O=c1c(-c2ccnc3[nH]ccc23)nsnc1N1CCOCC1` [Compound 19, 3-Morpholino-5-(1H-pyrrolo[2,3-b]pyridin-4-yl)-4H-1,2,6-thiadiazin-4-one] displayed a melting point of 256 to 257 °C. The IC50 with 5637 cells is above 100 µM. In the series with MCF-7 cells, the IC50 was determined as 46 µM. In addition, in the series on U-CH1 cells, the IC50 is above 100 µM. In the series with U-CH2 cells, the IC50 is above 100 µM. Further, in the series with A-431 cells, the IC50 was above 100 µM. Also, in the series on DU145 cells, the concentration for half-maximal inhibition (IC50) came out at 14 µM. Besides, in the series with PANC-1 cells, the IC50 came to 11 µM. Besides, the IC50 with WS-1 cell line is above 100 µM.
`CN1CCN(c2nsnc(-c3ccnc4[nH]ccc34)c2=O)CC1` [Compound 20, 3-(4-Methylpiperazin-1-yl)-5-(1H-pyrrolo[2,3-b]pyridin-4-yl)-4H-1,2,6-thiadiazin-4-one] registered a melting point of 195 to 196 °C. Also, in the series on 5637 cells, the half-maximal inhibitory concentration (IC50) is above 100 µM. The IC50 in the series on MCF-7 cells was above 100 µM. Also, the IC50 with DU145 cells is above 100 µM. In the series with PANC-1 cells, the IC50 was above 100 µM.
`CN1CCN(c2nsnc(Nc3ccnc4[nH]ccc34)c2=O)CC1` [Compound 21, 5-(4-Methylpiperazin-1-yl)-3-[(1H-pyrrolo[2,3-b]pyridin-4-yl)amino]-4H-1,2,6-thiadiazin-4-one]: the melting point was 286 to 287 °C. Moreover, the 50% inhibitory concentration (IC50) with 5637 cells is above 100 µM. Moreover, the IC50 in the series with MCF-7 cells is above 100 µM. Moreover, the IC50 in the series with U-CH1 cells was found to be 97 µM. Moreover, the IC50 in the series on U-CH2 cells was above 100 µM. Also, in the series on A-431 cells, the IC50 is above 100 µM. Moreover, in the series with DU145 cells, the IC50 came to 51 µM. The concentration for half-maximal inhibition (IC50) with PANC-1 cells is above 100 µM. Moreover, in the series on WS-1 cell line, the IC50 is above 100 µM.
In turn, `CN1CCN(c2nsnc(Nc3ccc4[nH]ncc4c3)c2=O)CC1` [Compound 22, 3-[(1H-Indazol-5-yl)amino]-5-(4-methylpiperazin-1-yl)-4H-1,2,6-thiadiazin-4-one] registered a melting point of 262 to 263 °C. Also, the IC50 in the series on 5637 cells was above 100 µM. The IC50 in the series with MCF-7 cells was found to be 25 µM. The half-maximal inhibitory concentration (IC50) with U-CH1 cells was above 100 µM. For the same compound, the IC50 in the series on U-CH2 cells was above 100 µM. Also, the 50% inhibitory concentration (IC50) in the series with A-431 cells is above 100 µM. Also, in the series with DU145 cells, the half-maximal inhibitory concentration (IC50) turned out to be 50 µM. Also, in the series with PANC-1 cells, the IC50 is above 100 µM. Besides, in the series with WS-1 cell line, the IC50 was determined as 24 µM.
